Legend:
HIV = experiment: Luciferase-based single cycle infectivity assay in LuSIV cells; type: cell-based, HIV-1; conditions: LuSIV cells treated with 20 mM; all viral input levels
Protocol: (§1) The effect of 2-OH-βCD on infectivity of HIV was measured in a Luciferase-based single cycle infection assay as previously described (Liao et al., supra, 2000). LuSIV cells were treated with 20 mM 2-OH-βCD in iRPMI or iRPMI alone for 1 hr at 37° C. Cells were then washed with iRPMI before being resuspended in cRPMI at a density of 2×10^6/ml. Cells in 100 Tl were mixed with cRPMI or with dilutions of virus supernatant (62 to 500 pg/ml of p24) from 2-OH-βCD-treated or untreated PM1 cells and allowed to incubate overnight (16 hr) at 37° C. The LuSIV cells were washed with PBS and lysed with 100 Tl of Reporter Lysis Buffer (Promega). After centrifugation at 13,000×g for 30 seconds, 10, μl of lysate were added to 100 μl Luciferase Reagent (Promega) in an opaque 96 well plate and luminescence was measured on a Packard Lumicount luminometer (Downers Grove, Ill.).
The effects of βCD treatment on HIV infectivity were measured in a sensitive single-cycle infection assay based on a cell line transfected with an LTR-luciferase cassette. […] Quantitative measurements of single round infection are obtained with this assay system (Roos et al., Virology 273:307-315, 2000, which is incorporated herein by reference). […]

[1] = system: HIV-1RF chronically infected Jurkat cells; experiment: Virus precipitation with MAbs after β-cyclodextrin treatment of infected cells; type: cell-based
Protocol: Infected Jurkat cells (3×10^6) were treated with 20 mM hydroxypropyl-β-cyclodextrin (2-OH-βCD; Cyclodextrin Technologies Development, Inc.; Gainesville Fla.) in 3 ml of cRPMI or with cRPMI alone for 1 hr at 37° C. Cells were washed with PBS, then allowed to produce virus in 3 ml of cRPMI at 37° C. for 2 hr. Viral supernatants were clarified through a 0.45 Tm filter, and […] of MAb (10 mg/ml) in 5% NGS-PBS, and the mixture was incubated for 1 hr on ice. Pansorbin (SaC) (50 mg; Calbiochem; San Diego Calif.) was added to the solution and incubated for 20 min on ice. Complexes were washed sequentially with 10X and 1X PBS. Precipitated virus was lysed with […] of 1% Triton X-100 in cRPMI. Lysates were diluted, and p24 was quantitated by standard p24 ELISA.
The effects of 2-OH-βCD, a cellular cholesterol efflux inducing molecule, on the incorporation of host molecules into virions also was examined. By removing cholesterol, 2-OH-βCD is believed to partially perturb organized lipid rafts, resulting in dispersal of their components (Ilangumaran and Hoessli, Biochem. J. 335:433-440, 1998).

HIV-1 = experiment: Virus production and infectivity of virions from cholesterol-depleted cells; type: cell-based
Protocol: PM1 cells chronically infected with HIV-1RF were washed and treated with 20 mM 2-OH-βCD in cRPMI or with cRPMI alone for 1 hr at 37° C. The cells were then washed twice before resuspension at a density of 5×10^6/ml in cRPMI. The cells were incubated for 6 hrs at 37° C., 5% CO2 and pelleted by centrifugation. Supernatants, which contained the virus, were collected and purified by centrifugation through a 20% sucrose cushion (Liao et al., supra, 2000). The virus pellets were taken up in cRPMI and titrated against LuSIV cells to determine infectivity. P24 was measured in a standard p24 ELISA.
as §1, with “The LuSIV cells were washed with PBS and lysed with 100 Tl of Reporter Lysis Buffer (Promega).” left out

[2] = system: HIV-1 primary strain 97.534, dual-tropic (X4R5); experiment: Primary virus infection assay, isolate 97.534; type: cell-based; conditions: PHA blasts treated with 10 mM; p24 after 6 days
Protocol: Peripheral blood mononuclear cells (PBMCS) were isolated by Ficoll-Hypaque centrifugation from buffy coats obtained from the Johns Hopkins Hemapheresis Center. Cells were stimulated for 3 days with 3 Tg/ml PHA, washed with iRPMI, and treated with 10 mM 2-OH-βCD in cRPMI for 1 hr. Cells were then washed twice with iRPMI and resuspended in cRPMI (1×10^6/ml) supplemented with 50 U/ml IL-2 and containing primary HIV-1 strains at 20 ng/ml p24. Cells were incubated with virus for 24 hr at 37° C. before washing twice with iRPMI. Cells were then resuspended in cRPMI supplemented with 50 U/ml IL-2 and cultured for 6 days at 37° C. Supernatants were collected and p24 was quantitated by standard p24 ELISA.
βCD treatment blocks HIV-1 virus infection. HIV-1 can spread in cell cultures without necessarily exerting cytopathic effects. […] To test the effects of cholesterol depletion on HIV-1 infection of primary T cells by free virus, PHA blasts were treated with 10 mM 2-OH-βCD or medium alone, then were exposed to HIV-1 for 2 hr before washing to remove input virus. Viability and growth of the PHA blasts was not affected by treatment with the βCD under the conditions used. P24 release was measured after an addition 6 days in culture. Two primary strains of HIV-1, 97.099 and 97.534, M-tropic (R5) and dual-tropic (X4R5), respectively, were tested.

HSV-2 strain G = experiment: HSV mouse vaginal challenge model; type: in vivo, CD-1 mice; conditions: HSV-2 preincubated with 3%, intravaginal 1×10^4 TCID50; p=0.022
Protocol: The ability of 2-OH-βCD to reduce the infectiousness of HIV-1 (Examples 2 and 3) led to an investigation as to the general applicability of βCDs to prevent the transmission of other sexually transmitted enveloped viruses. A well characterized HSV mouse vaginal challenge model was used to examine the effect of 2-OH-βCD on HSV-2 infection (Sherwood et al., supra, 1996). Adult female CD-1 mice (Charles River Breeding Laboratories; Wilmington Mass.) were injected subcutaneously with Depo-Provera® progestin (2 mg) to increase their sensitivity, then one week later the mice were inoculated intravaginally with 1×10^4 TCID50 of cell-free HSV-2 strain G (10 ID50) using a WIRETROL capillary micropipette (Drummond Scientific; Broomall Pa.). Infection was confirmed by lavage culture on newborn foreskin fibroblast cells (Biowhitaker). Prior to inoculation, HSV-2 was preincubated either with 3% 2-OH-βCD or with buffer.

[3] = infected Jurkat cells treated with 20 mM for 1 hr at 37° C, P<0.05

2-hydroxypropyl-β-cyclodextrin [2-OH-βCD]
Reduction of HIV infection of LuSIV cells (HIV): ~100% | Overall cellular release of p24 ([1]; infected Jurkat cells after treatment): increased | CD45 capture of HIV-1 ([1]; infected Jurkat cells treated with 20 mM for 1 hr at 37° C): remained mostly unaffected | Capture of HIV-1 by MAb against CD59, percentage of total p24 [1, 3]: decreased substantially | Capture of HIV-1 by MAb against gp41, percentage of total p24 [1, 3]: decreased substantially | Decrease in capture of HIV-1 through Thy-1 ([1]; infected Jurkat cells treated with 20 mM for 1 hr at 37° C, P=0.08): not statistically significant | Infectivity of virions from cholesterol-depleted cells (HIV-1): significantly less infectious | Production of HIV-1 virions from cholesterol-depleted cells (HIV-1): dramatically decreased | Inhibition of infection of PHA blasts by isolate 97.534 (p24 release) [2]: more than 70% | Mice that became infected (HSV-2 strain G): 5 of 10
